The results in this text go back to patent US10053463B2 (Janssen Pharmaceutica NV, priority 2013, dated 2018).

In the first assay the target is P2X7 (Homo sapiens (Human), UniProt Q99572). Nature of the assay: P2X7 antagonism in human peripheral blood mononuclear cells (PBMCs), IL-1β release. Conditions: P2X7; Table 3 (additional runs); 10 μM compound; read-out: PBMC 10 μM (% control). It is filed as cell-based. The protocol: P2X7 Antagonism in Human Peripheral Blood Mononuclear Cells (PBMCs) and Human Whole Blood.
Sequence of P2X7 (Q99572 whole entry): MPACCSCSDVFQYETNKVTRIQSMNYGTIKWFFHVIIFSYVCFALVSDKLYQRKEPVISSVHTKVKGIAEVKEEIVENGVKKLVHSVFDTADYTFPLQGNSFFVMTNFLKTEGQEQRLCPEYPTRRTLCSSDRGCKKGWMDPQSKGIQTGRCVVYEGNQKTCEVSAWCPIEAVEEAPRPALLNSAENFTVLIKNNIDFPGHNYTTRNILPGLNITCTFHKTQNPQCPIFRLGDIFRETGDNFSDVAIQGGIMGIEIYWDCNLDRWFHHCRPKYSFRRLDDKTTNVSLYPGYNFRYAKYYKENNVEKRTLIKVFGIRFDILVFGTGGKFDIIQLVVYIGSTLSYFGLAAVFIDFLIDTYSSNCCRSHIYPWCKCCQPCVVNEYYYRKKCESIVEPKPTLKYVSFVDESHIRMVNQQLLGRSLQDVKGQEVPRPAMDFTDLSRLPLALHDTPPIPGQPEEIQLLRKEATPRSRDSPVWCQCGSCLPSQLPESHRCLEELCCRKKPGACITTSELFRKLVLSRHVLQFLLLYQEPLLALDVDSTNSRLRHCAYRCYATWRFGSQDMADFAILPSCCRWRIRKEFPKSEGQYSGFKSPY
Human blood was collected using a blood donor program. PBMCs were isolated from blood using a Ficoll density gradient technique. Briefly, blood was laid on Ficoll solution and centrifuged at RT for 20 minutes at 2000 rpm. The buffy layer (between red blood cells and plasma) was carefully collected by aspiration, washed with PBS and centrifuged again at 1500 rpm for 15 minutes. The resulting cell pellet was washed and plated on 96 well-plates for experiments. For the Human Whole Blood experiments, 150 μl of human blood was platted on 96 well-plates. Lipopolysaccharide (LPS) (30 ng/ml) was added to each well and incubated for 1 hour. Test compounds were then added and incubated for 30 minutes. The P2X7 agonist, 2′(3′)-O-(4-benzoylbenzoyl) adenosine 5′-triphosphate (Bz-ATP) was then added at a final concentration of 0.5 mM (PBMC) or 1 mM (blood). Cells were incubated for an additional 1.5 hours. At that point, supernatant was collected and stored for IL-1β assay using manufacturer's protocol for enzyme-linked immunosorbent assay (ELISA). Data was expressed as percent control, where control is defined as the difference in IL-1β release in LPS+Bz-ATP samples and LPS only samples. Data was plotted as response (% control) versus concentration to generate IC50 values. […] Data are analyzed and graphed on Graphpad Prism 5. For analysis, each concentration point is averaged from triplicate values and the averaged values are plotted on Graphpad Prism.
As to `C[C@H]1Cn2c(-c3cccc(C(F)(F)F)n3)nnc2-c2nnc(-c3cccc(C(F)(F)F)c3Cl)n21` [Example 117, (S)-3-[2-chloro-3-(trifluoromethyl)phenyl]-5-methyl-8-(6-(trifluoromethyl)pyridine-2-yl)-5,6-dihydrobis[1,2,4]triazolo[4,3-a:3′,4′-c]pyrazine], the remaining activity at 10 µM was 25.9%.

As to `C[C@H]1Cn2c(-c3cccnn3)nnc2-c2nnc(-c3cccc(C(F)(F)F)c3Cl)n21` [Example 108, (5S)-3-[2-Chloro-3-(trifluoromethyl)phenyl]-5-methyl-8-pyridazin-3-yl-5,6-dihydrobis[1,2,4]triazolo[4,3-a:3′,4′-c]pyrazine], the remaining activity at 10 µM is -0.5%. On the same count and under the same terms, as for `C[C@H]1Cn2c(nnc2-c2cnccn2)C(=O)N1Cc1ccc(Cl)cc1S(C)(=O)=O` [Example 82, (6S)-7-[4-Chloro-2-(methylsulfonyl)benzyl]-6-methyl-3-pyrazin-2-yl-6,7-dihydro[1,2,4]triazolo[4,3-a]pyrazin-8(5H)-one], the figure is 22.2%; as for `C[C@H]1Cn2c(nnc2-c2cnccn2)C(=O)N1` [Example 77, (6S)-6-Methyl-3-pyrazin-2-yl-6,7-dihydro[1,2,4]triazolo[4,3-a]pyrazin-8(5H)-one], 105%. The same measure, in the same setting: then `Cc1cncc(-c2nnc3n2C[C@H](C)N(Cc2cccc(C(F)(F)F)c2Cl)C3=O)c1` [Example 57, (6S)-7-[2-Chloro-3-(trifluoromethyl)benzyl]-6-methyl-3-(5-methylpyridin-3-yl)-6,7-dihydro[1,2,4]triazolo[4,3-a]pyrazin-8(5H)-one], with 0.1%. Same read-out and setting: then `O=C1c2nnc(-c3cccnc3)n2CC(C2CC2)N1Cc1cccc(C(F)(F)F)c1Cl` (racemic) [Example 67, (±)-7-[2-Chloro-3-(trifluoromethyl)benzyl]-6-cyclopropyl-3-pyridin-3-yl-6,7-dihydro[1,2,4]triazolo[4,3-a]pyrazin-8(5H)-one], with 6.9%; and `C[C@H]1Cn2c(nnc2-c2cn[nH]c2)C(=O)N1Cc1cccc(C(F)(F)F)c1Cl` [Example 25, (6S)-7-[2-Chloro-3-(trifluoromethyl)benzyl]-6-methyl-3-(1H-pyrazol-4-yl)-6,7-dihydro[1,2,4]triazolo[4,3-a]pyrazin-8(5H)-one], with 2.8%; and `Cc1cc(-c2nnc3n2C[C@H](C)N(Cc2cccc(C(F)(F)F)c2Cl)C3=O)n[nH]1` [Example 26, (6S)-7-[2-Chloro-3-(trifluoromethyl)benzyl]-6-methyl-3-(5-methyl-1H-pyrazol-3-yl)-6,7-dihydro[1,2,4]triazolo[4,3-a]pyrazin-8(5H)-one], with -3.7%.

In the case of `C[C@H]1Cn2c(nnc2-c2cncc(F)c2)C(=O)N1Cc1cccc(C(F)(F)F)c1Cl` [Example 45, (6S)-7-[2-Chloro-3-(trifluoromethyl)benzyl]-3-(5-fluoropyridin-3-yl)-6-methyl-6,7-dihydro[1,2,4]triazolo[4,3-a]pyrazin-8(5H)-one], the remaining activity at 10 µM was found to be 20.1%.

With `C[C@H]1Cn2c(nnc2-c2cccnn2)C(=O)N1Cc1cccc(C(F)(F)F)c1Cl` [Example 44, (6S)-7-[2-Chloro-3-(trifluoromethyl)benzyl]-6-methyl-3-pyridazin-3-yl-6,7-dihydro[1,2,4]triazolo[4,3-a]pyrazin-8(5H)-one], the remaining activity at 10 µM was found to be 26%. On the same count and under the same terms, then `C[C@H]1Cn2c(nnc2-c2cnccn2)C(=O)N1Cc1cccc(Cl)c1Cl` [Example 13, (6S)-7-(2,3-Dichlorobenzyl)-6-methyl-3-pyrazin-2-yl-6,7-dihydro[1,2,4]triazolo[4,3-a]pyrazin-8(5H)-one], with 8.2%.

Staying with this assay, now noted: Table 2; 10 μM compound; IL-1β release, LPS + 0.5 mM Bz-ATP.
Regarding `C[C@H]1Cn2c(nnc2-c2cnccn2)C(=O)N1Cc1cccc(Cl)c1Cl` [Example 13, (6S)-7-(2,3-Dichlorobenzyl)-6-methyl-3-pyrazin-2-yl-6,7-dihydro[1,2,4]triazolo[4,3-a]pyrazin-8(5H)-one], the “PBMC 10 μM (% control)” value was 15.4 % control.

Still in this assay, the particulars now being: Table 3 (additional runs); 1 μM compound.
For `O=C1c2nnc(-c3cnccn3)n2CCN1Cc1cccc(C(F)(F)F)c1Cl` [Example 3, 7-[2-Chloro-3-(trifluoromethyl)benzyl]-3-pyrazin-2-yl-6,7-dihydro[1,2,4]triazolo[4,3-a]pyrazin-8(5H)-one], the “PBMC 1 μM (% control)” value is reported as −0.6 % control.
